What was measured:
[1] = as previously reported; cited from earlier work
Experimental: (§1) All peptides including ML1, ML1-c1, ML1-c2, ML1-c3, ML1-h1, ML1-h2, and ML1-h3 were synthesized as monomers by solid-phase peptide synthesis. […] To evaluate the purity and concentration of the peptides, LC/MSD (HP 1100 series) and HPLC analyses (SHIMADZU prominence HPLC) were performed. We obtained peptides having >95% purity and then dissolved with DMSO or water as a high ...

[2] = test system: EPOR; conditions: as previously reported; cited from earlier work
Experimental: as §1

[3] = biological target: EphB4 (Homo sapiens) (UniProt P54760); conditions: cited from earlier work
[4] = test system: differentiated neuronal PC12 cells; experiment: Cell viability (MTS) under H2O2-induced oxidative stress; assay type: cell-based, rat; conditions: 300 μM H2O2 for 24 h; peptides 1 ng/ml, reEPO 0.5 IU/ml; MTS; n = 3; Fig. 1c
Experimental: (§2) PC12 cells (#CRL-1721, ATCC, USA), a rat pheochromocytoma cell line derived from the adrenal medulla (#CRL-1721, ATCC, USA), were seeded on a dish, which was coated by poly L-lysine (0.01%; Sigma Chemical Co., USA), and grown in RPMI 1640 medium (#11875093, Gibco, USA), supplemented with 10% heat-inactivated horse serum (#26050088, Gibco, USA), 5% fetal bovine serum (FBS) (#SH30919.03, Hyclone, USA), and 1% penicillin/streptomycin at 37°C with 5% CO2. For neuronal differentiation, PC12 cells were plated at a density of 1.25x10^3 cell/cm^2 into 96-well plates coated with collagen 1 (#354236, BD Biosciences, USA) and grown in RPMI 1640 medium supplemented with 50 ng/ml nerve growth factor (NGF) (BD Biosciences, USA) and 0.5% FBS for 10 days. The NGF-supplemented media was replaced with fresh media every 3 days during neuronal differentiation.
(§3) Cell viability was evaluated by 3-[(4,5-dimethylthiazol-2-yl)-5,3-carboxymethoxyphenyl]-2-(4-sulfophenyl)-2H tetrazolium, inner salt (MTS) reduction assay (CellTiter 96 Aqueous One Solution Cell Proliferation Assay, Promega, Madison, WI, USA). Briefly, differentiated neuronal-PC12 cells were treated with H2O2 (300 μM) with or without reEPO and peptides for 24 h. The PC12 cells were washed with PBS; 20 ul MTS solution was added to each well with 100 μl PBS, and the cells were incubated for 3 h at 37°C and 5% CO2. The intracellular soluble formazan produced by cellular reduction of the MTS was determined by recording the absorbance at 490 nm using a microplate reader (VersaMax, Molecular Devices, USA). Cell proliferation was also evaluated by the MTS assay. Undifferentiated PC12 cells were seeded into a 96-well plate (5x10^4 cells/well). The next day, the initial cell number was counted; after 48 h, under low FBS concentration (0.5%), with or without reEPO and peptides, cell number was measured by the MTS assay.

[5] = test system: differentiated neuronal PC12 cells; experiment: Cellular ROS level by H2DCFDA under H2O2; assay type: cell-based, rat; conditions: H2O2 for 6 h; H2DCFDA staining; n = 5; Fig. 4b
Experimental: as §2
The cellular ROS level was measured using 2′,7′-dichlorodihydrofluorescein diacetate (H2DCFDA) (#D399, Invitrogen, USA). The cells were incubated with 5 μM H2DCFDA in PBS for 30 min, washed with PBS, and then resuspended in the medium for 2 h. After treatment of H2O2 without or with reEPO, or peptide, we monitored the oxidative stress by measuring the fluorescence intensities of H2DCFDA by using excitation and emission wavelengths of 485 nm and 535 nm, respectively.

[6] = test system: undifferentiated PC12 cells; experiment: Cell proliferation (MTS) under low serum; assay type: cell-based, rat; conditions: 0.5% fetal bovine serum, 48 h, reEPO 10 IU/ml, peptides 10 ng/ml, n = 5, Fig. 4c
Experimental: PC12 cells (#CRL-1721, ATCC, USA), a rat pheochromocytoma cell line derived from the adrenal medulla (#CRL-1721, ATCC, USA), were seeded on a dish, which was coated by poly L-lysine (0.01%; Sigma Chemical Co., USA), and grown in RPMI 1640 medium (#11875093, Gibco, USA), supplemented with 10% heat-inactivated horse serum (#26050088, Gibco, USA), 5% fetal bovine serum (FBS) (#SH30919.03, Hyclone, USA), and 1% penicillin/streptomycin at 37°C with 5% CO2. […]
as §3, with “Briefly, differentiated neuronal-PC12 cells were treated with H2O2 (300 μM) with or without reEPO and peptides for 24 h. The PC12 cells were washed with PBS; 20 ul MTS solution was added to each well with 100 μl PBS, and the cells were incubated for 3 h at 37°C and 5% CO2.” left out, “Undifferentiated PC12 cells were seeded into a 96-well plate (5x10^4 cells/well).” left out

[7] = biological target: T1, Soluble recombinant human EPOR-Fc chimera protein (human, UniProt P19235 25-250); experiment: SPR; Reichert SR 7500 C; EPOR-Fc covalently immobilised by amine coupling on a carboxymethylated dextran chip; peptides at 5, 2.5 and 1.25 uM flowed at 5 ul/min, in duplicate; regeneration with 25 mM acetic acid; conditions: both partners purified
T1 construct: erythropoietin receptor (EPOR), human, soluble form fused to Fc; the discussion says the SPR analysis was based on only the extracellular domain of EPOR; also called erythropoietin receptor; source: bought: R&D Systems (#963-ER)
T1 sequence (looked up): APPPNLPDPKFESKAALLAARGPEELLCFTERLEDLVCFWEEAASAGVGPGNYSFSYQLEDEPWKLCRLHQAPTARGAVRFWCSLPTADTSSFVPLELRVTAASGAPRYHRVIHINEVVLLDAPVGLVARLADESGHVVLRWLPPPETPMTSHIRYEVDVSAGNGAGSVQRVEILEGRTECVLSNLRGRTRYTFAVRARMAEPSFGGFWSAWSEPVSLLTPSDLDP

Sequence of EphB4 (Homo sapiens) (P54760 16-539): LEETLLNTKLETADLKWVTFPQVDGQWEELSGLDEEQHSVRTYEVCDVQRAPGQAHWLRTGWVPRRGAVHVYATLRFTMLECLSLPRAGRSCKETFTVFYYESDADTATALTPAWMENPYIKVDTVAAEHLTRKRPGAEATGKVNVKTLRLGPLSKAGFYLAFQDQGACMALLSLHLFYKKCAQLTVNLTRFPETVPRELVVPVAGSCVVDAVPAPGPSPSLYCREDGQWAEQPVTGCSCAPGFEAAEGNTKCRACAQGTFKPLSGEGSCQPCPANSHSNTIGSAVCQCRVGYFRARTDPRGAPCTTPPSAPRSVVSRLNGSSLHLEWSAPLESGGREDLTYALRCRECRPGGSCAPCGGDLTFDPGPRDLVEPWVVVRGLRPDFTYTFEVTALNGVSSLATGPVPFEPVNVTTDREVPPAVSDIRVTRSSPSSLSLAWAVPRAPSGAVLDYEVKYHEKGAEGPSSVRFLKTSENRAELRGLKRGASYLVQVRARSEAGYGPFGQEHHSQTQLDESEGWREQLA

**Q.** What does the source list for “AMELSGRTLGLILKLRQSATL [negative control peptide]”?
**A.** Effect on cell survival and proliferation [1]: unaffected cell survival and proliferation; Binding to EPOR [2]: did not bind to EPOR

**Q.** Which Kd [3] does the source give for EPO (from UniProt P01588) here?
**A.** Its Kd is 880 nM.

**Q.** Which results are given for “ML1: monomeric peptide spanning 118Leu-140Gly of helix C of EPO; prototype for second-generation EPO-derived peptide (LQLHVDKAVSGLRSLTTLLRALG)”?
**A.** Cell viability (neuroprotective effect) against H2O2 [4]: a better neuroprotective effect than reEPO; Level of reactive oxygen species (ROS) induced by H2O2 [5]: decreased the levels of reactive oxygen species (ROS); Cell proliferation (cell number) [6]: did not induce proliferation

**Q.** For “ML4: monomeric peptide spanning 127Ser-140Gly of helix C of EPO”, which “Cell viability (neuroprotective effect) against H2O2” value [4] is on record?
**A.** Its value is “showed a neuroprotective effect”.

B1: ML1 (peptide, UniProt P01588 118-140, looked up)
peptide: LQLHVDKAVSGLRSLTTLLRALG
notes: Monomeric peptide; also called ML1 prototype; source: synthetic peptide (solid-phase synthesis, monomer, >95% purity; bought: Peptron Inc.)
**Q.** Does B1 bind [7]?
**A.** Result: binds
